Experimental data: ChEMBL document CHEMBL1201862, “PubChem BioAssay data set” (2004)
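Step 1: Grow cells in 96-well plates. Step 2: Expose to compound for 48 hours at 5 concentrations. Step 3: Interpolate endpoints linearly; if unreached, use highest concentration. The concentration for 50% growth inhibition is given as GI50.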 Active and inactive are the calls of the source. Cut-off read from the data, not from the text of the source: active = GI50 up to about 1.1 µM and inactive = higher.

Experiments:
Assay in all cases: growth of human tumour cells (NCI), 48 h
786-0 = test system: 786-0
ACHN = test system: ACHN
CAKI-1 = test system: CAKI-1
HCT-116 = test system: HCT-116
HOP-62 = test system: HOP-62
IGROV-1 = test system: IGROV-1
K562 = test system: K562
KM12 = test system: KM12
M14 = test system: M14
NCI-H522 = test system: NCI-H522
NCI/ADR-RES = test system: NCI/ADR-RES
OVCAR-4 = test system: OVCAR-4
RPMI-8226 = test system: RPMI-8226
SF-268 = test system: SF-268
SNB-75 = test system: SNB-75
TK-10 = test system: TK-10
RXF 393 = test system: RXF 393
T47D = test system: T47D
HCC 2998 = test system: HCC 2998

Measured: GI50

O=c1c(-c2ccccc2)c(SCCO)n(-c2ccccc2)c(=S)n1-c1ccccc1
inactive: 786-0 > 100 µM | ACHN > 100 µM | CAKI-1 > 100 µM | HCT-116 > 100 µM | HOP-62 > 100 µM | IGROV-1 > 100 µM | K562 > 100 µM | KM12 > 100 µM | M14 > 100 µM | NCI-H522 > 100 µM | NCI/ADR-RES > 100 µM | OVCAR-4 > 100 µM | RPMI-8226 > 100 µM | SF-268 > 100 µM | SNB-75 39.6 µM | TK-10 > 100 µM

COc1ccc(C(C#N)NNC(=O)Cc2ccccc2)cc1OC (stereo unspecified)
inactive: 786-0 > 100 µM | ACHN > 100 µM | CAKI-1 > 100 µM | HCT-116 > 100 µM | HOP-62 > 100 µM | IGROV-1 > 100 µM | K562 > 100 µM | KM12 > 100 µM | M14 > 100 µM | NCI-H522 > 100 µM | OVCAR-4 > 100 µM | RPMI-8226 > 100 µM | RXF 393 > 100 µM | SF-268 > 100 µM | SNB-75 39.9 µM | TK-10 > 100 µM

Cc1nn(-c2ccccc2)c2c1C(c1cc3ccccc3nc1Cl)NC(=S)N2 (stereo unspecified)
inactive: 786-0 33 µM | ACHN 54.2 µM | CAKI-1 59.4 µM | HCT-116 36.1 µM | HOP-62 > 100 µM | IGROV-1 12 µM | K562 39.5 µM | KM12 30.7 µM | M14 > 100 µM | NCI-H522 14.3 µM | NCI/ADR-RES 46.3 µM | OVCAR-4 65.3 µM | RPMI-8226 20.7 µM | RXF 393 26.3 µM | SF-268 34.8 µM | SNB-75 82.2 µM | T47D > 100 µM | TK-10 58.5 µM

CCCCCCCCCCCCOC1C(COCCN2CCCC2)OC2OC(C)(C)OC21 (stereo unspecified)
inactive: 786-0 1.68 µM | ACHN 3.35 µM | CAKI-1 1.6 µM | HCT-116 1.75 µM | HOP-62 1.8 µM | IGROV-1 1.72 µM | K562 1.23 µM | M14 1.85 µM | NCI-H522 1.23 µM | NCI/ADR-RES 1.73 µM | OVCAR-4 2.03 µM | RPMI-8226 2.52 µM | RXF 393 1.57 µM | SF-268 2 µM | SNB-75 1.83 µM | T47D 2.07 µM | TK-10 1.66 µM

O=C1CCc2cc(Br)ccc2O1
inactive: 786-0 29.2 µM | ACHN 49.1 µM | CAKI-1 38.4 µM | HCC 2998 > 100 µM | HCT-116 42 µM | HOP-62 22.4 µM | IGROV-1 67.3 µM | K562 > 100 µM | M14 57 µM | NCI-H522 32.7 µM | OVCAR-4 > 100 µM | RPMI-8226 > 100 µM | RXF 393 28.2 µM | SF-268 23.6 µM | SNB-75 30.4 µM | T47D 73.3 µM | TK-10 45.7 µM

S=c1oc(CCCCCCCCc2nn(CNc3ccc(Cl)cc3)c(=S)o2)nn1CNc1ccc(Cl)cc1
inactive: 786-0 > 100 µM | ACHN 72.3 µM | CAKI-1 33.8 µM | HCC 2998 > 100 µM | HCT-116 > 100 µM | HOP-62 7.52 µM | IGROV-1 > 100 µM | K562 6.89 µM | KM12 35.8 µM | M14 12 µM | NCI-H522 > 100 µM | NCI/ADR-RES > 100 µM | OVCAR-4 > 100 µM | RPMI-8226 6.78 µM | RXF 393 > 100 µM | SF-268 > 100 µM | SNB-75 > 100 µM | TK-10 > 100 µM

Cc1ccc(S(=O)(=O)Nc2ccccc2C=O)cc1
inactive: 786-0 16.3 µM | ACHN 17.7 µM | CAKI-1 23.9 µM | HCT-116 14.8 µM | HOP-62 21.5 µM | IGROV-1 17.4 µM | K562 8.15 µM | KM12 16.1 µM | M14 19.3 µM | NCI-H522 29 µM | NCI/ADR-RES 14.6 µM | OVCAR-4 16.4 µM | RPMI-8226 5.62 µM | RXF 393 25.6 µM | SNB-75 18.3 µM | T47D 14.9 µM | TK-10 17.9 µM

Oc1ccc(Cl)cc1/N=N\c1c(O)ccc2ccccc12
inactive: 786-0 > 100 µM | ACHN > 100 µM | CAKI-1 > 100 µM | HCT-116 > 100 µM | HOP-62 > 100 µM | IGROV-1 > 100 µM | K562 > 100 µM | KM12 > 100 µM | M14 > 100 µM | NCI-H522 59.4 µM | NCI/ADR-RES > 100 µM | OVCAR-4 > 100 µM | RPMI-8226 > 100 µM | RXF 393 > 100 µM | SF-268 > 100 µM | SNB-75 > 100 µM | TK-10 > 100 µM
